Experimental data taken from US9828365B2, “Fused tetracyclic heterocyclic compounds and methods of use thereof for the treatment of viral diseases” (MERCK SHARP & DOHME CORP., priority 2013, dated 2017).
Read-outs that look alike come from different tables or passages of the source.

What was measured:
[1] = system: HCV replicon 2B; assay: Cell-based HCV replicon assay, 2B; details: replicon cells, 3 days, replicon RNA by real-time PCR
Description: (§1) To measure cell-based anti-HCV activity of selected compounds of the present invention two complimentary assays were employed. In the first assay, replicon cells were seeded at 2000 cells/well in 384-well flat bottom tissue culture treated clear bottom plate (Corning 3707) in the presence of the test compound. Various concentrations of test compound, typically in 10 serial dilutions, were added to the assay mixture, with the starting concentration ranging from 333.3 nM to 1.667 nM. The final concentration of DMSO was 0.5%. Fetal bovine serum was 5%, in the assay media. Cells were harvested on day 3 by removing media and washing the cells with a suitable wash buffer. The cells were lysed with the addition of 1× Qiagen lysis buffer (Cat #1062731). The replicon RNA level was measured using real time PCR (TaqMan® EZ RT-PCR, Applied Biosystems 403028) with the following primers and probes: […]
(§2) Cyclophilin RNA was used as endogenous control and was amplified in the same reaction as NS5B (multiplex PCR). The real-time RT-PCR reactions were run on ABI PRISM 7900HT Sequence Detection System using the following program: 50° C. for 2 minutes, 60° C. for 30 minutes, 95° C. for 5 minutes, 40 cycles of 94° C. for 20 sec, 55° C. for 1 minute.
(§3) The amount of HCV replicon RNA per cell is quantified using a linear regression curve for a known nanogram (ng) amount of HCV replicon total RNA. This is established by plotting the Cycle Threshold values (Ct) from the Neo probe and primer set versus the log (ng) for each HCV replicon total RNA standard. The amount of HCV RNA for each replicon sample is calculated by taking the sample's Ct value, minus the line intercept, divided by the slope of the line. Similarly, the amount of Cyclophilin mRNA per cell is also quantified using a linear regression curve for a known nanogram (ng) amount of HCV replicon total RNA. Again, this is established by plotting the Cycle Threshold values (Ct) from the Cyclophilin probe and primer set versus the log (ng) for each HCV replicon total RNA standard.
(§4) In the alternate assay, 1000 cells were seeded per well in a 384-well collagen coated black plate from Greiner bio-one (Cat #781946) in 5% FBS. Inhibitors of this invention were added at 24 hours post-seeding, and the plates were incubated for 3 days. Cells were subsequently lysed with Qiagen lysis buffer (Cat #1062731) to extract the RNA. HCV replicon RNA level was measured by real-time PCR using the RNA-to-CT kit from Applied Biosystem (Cat #4392656) and genotype-specific primers and probes. The amplicon was located within NS5B. The sequence of the PCR primers were as follows: 5B.2F, ATGGACAGGCGCCCTGA (SEQ. ID NO. 7); 5B.2R, […] (SEQ. ID NO. 8); the probe sequence was FAM-labeled CACGCCATGCGCTGCGG (SEQ. ID NO. 9). To detect genotype 1A the primer 1A F, TGCGGAACCGGTGAGTACA (SEQ ID NO:10) and 1A R, […] (SEQ ID NO: 11) were used; the probe sequence was FAM-[…] (SEQ ID NO:12).
(§5) The real-time RT-PCR reactions were run on ABI PRISM 7900HT or Viia7 Sequence Detection System using the following program: 48° C. for 30 minutes, 95° C. for 10 minutes, 40 cycles of 95° C. for 15 sec, 60° C. for 1 minute. The 50% effective concentration (EC50) was the drug concentration necessary to achieve an increase in the cycle threshold (CT) of 1 over the projected baseline CT. The EC90 was the drug concentration necessary to achieve an increase in CT of 3.2 over the projected baseline CT.

[2] = system: HCV replicon 1A Y93H; assay: Cell-based HCV replicon assay, 1A Y93H
Description: as §1, §2, §3, §4, §5

[3] = system: HCV replicon 3A; assay: Cell-based HCV replicon assay, 3A; details: replicon cells, 3 days, replicon RNA by real-time PCR
Description: as §1, §2, §3, §4, §5

[4] = system: HCV replicon 1B; assay: Cell-based HCV replicon assay, 1B; details: replicon cells, 3 days, replicon RNA by real-time PCR
Description: as §1, §2, §3, §4, §5

[5] = system: HCV replicon genotype 1A; assay: Cell-based HCV replicon assay, 1A; details: replicon cells, 3 days, replicon RNA by real-time PCR
Description: as §1, §2, §3, §4, §5

[6] = read-out: 1A Y93H IC50, replicon cells, 3 days, replicon RNA by real-time PCR
[7] = Hepatitis C virus, 72 h, read-out: 1A Y93H IC50 (nM), replicon cells, 3 days, replicon RNA by real-time PCR

| SMILES | IC50 [2, 6] [nM] | IC50 [5] [nM] | IC50 [2, 7] [nM] | also measured |
| --- | --- | --- | --- | --- |
| COC(=O)N[C@H](C(=O)N1CCC[C@H]1c1ncc(-c2ccc3c(c2)OC(c2ccccc2)C2=C3COc3cc(-c4cnc([C@@H]5CCCN5C(=O)[C@@H](NC(=O)OC)C(C)C)[nH]4)ccc32)[nH]1)C(C)C (single isomer, unassigned) [Compound 8] | 20.4 | 0.0337 |  | IC50 [1]: 6.65 nM; IC50 [3]: 0.969 nM; IC50 [4]: 0.021 nM |
| COC(=O)N[C@H](C(=O)N1CCC[C@H]1c1ncc(-c2ccc3c(c2)OC(c2ccccc2)C2=C3COc3cc(-c4cnc([C@@H]5CCCN5C(=O)[C@@H](NC(=O)OC)C(C)C)[nH]4)ccc32)[nH]1)C(C)C (single isomer, unassigned) [Compound 9] | 3.94 | 0.0099 |  | IC50 [1]: 1.9 nM; IC50 [3]: 0.172 nM; IC50 [4]: 0.0073 nM |
| COC(=O)N[C@H](C(=O)N1CCC[C@H]1c1ncc(-c2ccc3c(c2)OC(c2cccc(OC)c2)C2=C3COc3cc(-c4cnc([C@@H]5CCCN5C(=O)[C@@H](NC(=O)OC)C(C)C)[nH]4)ccc32)[nH]1)C(C)C (single isomer, unassigned) [Compound 10] |  | 0.0035 | 2.94 | IC50 ([1]; Hepatitis C virus, 72 h): 2.72 nM; IC50 [3]: 0.233 nM |
| COC(=O)N[C@H](C(=O)N1CCC[C@H]1c1ncc(-c2ccc3c(c2)OC(c2cccc(OC)c2)C2=C3COc3cc(-c4cnc([C@@H]5CCCN5C(=O)[C@@H](NC(=O)OC)C(C)C)[nH]4)ccc32)[nH]1)C(C)C (single isomer, unassigned) [Compound 11] |  | 0.01 |  | IC50 ([4]; Hepatitis C virus, 72 h): 0.006 nM |
| COC(=O)N[C@H](C(=O)N1CCC[C@H]1c1ncc(-c2ccc3c(c2)OC(c2cccc(OC)c2)C2=C3COc3cc(-c4cnc([C@@H]5CCCN5C(=O)[C@@H](NC(=O)OC)C(C)C)[nH]4)ccc32)[nH]1)C(C)C (single isomer, unassigned) [Compound 12] | 2.44 | 0.0251 |  | IC50 [3]: 1.82 nM |
| COC(=O)N[C@H](C(=O)N1CCC[C@H]1c1ncc(-c2ccc3c(c2)OC(C)C2=C3COc3cc(-c4cnc([C@@H]5CCCN5C(=O)[C@@H](NC(=O)OC)C(C)C)[nH]4)ccc32)[nH]1)C(C)C (single isomer, unassigned) [Compound 13] | 23.8 | 0.0344 |  | IC50 [1]: 12 nM; IC50 ([3]; Hepatitis C virus, 72 h): 1 nM |
| COC(=O)N[C@H](C(=O)N1CCC[C@H]1c1ncc(-c2ccc3c(c2)OC(C)C2=C3COc3cc(-c4cnc([C@@H]5CCCN5C(=O)[C@@H](NC(=O)OC)C(C)C)[nH]4)ccc32)[nH]1)C(C)C (single isomer, unassigned) [Compound 14] | 31.8 | 0.0122 |  | IC50 [1]: 24.5 nM |
| COC(=O)N[C@H](C(=O)N1CCC[C@H]1c1ncc(-c2ccc3c(c2)OC(C)C2=C3COc3cc(-c4cnc([C@@H]5CCCN5C(=O)[C@@H](NC(=O)OC)C(C)C)[nH]4)ccc32)[nH]1)C(C)C (single isomer, unassigned) [Compound 15] | 127 | 0.0229 |  | IC50 [1]: 15.3 nM |
| COC(=O)N[C@H](C(=O)N1CCC[C@H]1c1ncc(-c2ccc3c(c2)OC(C2CC2)C2=C3COc3cc(-c4cnc([C@@H]5CCCN5C(=O)[C@@H](NC(=O)OC)C(C)C)[nH]4)ccc32)[nH]1)C(C)C (single isomer, unassigned) [Compound 16] | 6.31 |  |  | IC50 ([1]; Hepatitis C virus, 72 h): 0.621 nM; IC50 ([3]; Hepatitis C virus, 72 h): 3.74 nM; IC50 ([5]; Hepatitis C virus, 72 h): 0.0118 nM |
| COC(=O)N[C@H](C(=O)N1CCC[C@H]1c1ncc(-c2ccc3c(c2)OC(C2CC2)C2=C3COc3cc(-c4cnc([C@@H]5CCCN5C(=O)[C@@H](NC(=O)OC)C(C)C)[nH]4)ccc32)[nH]1)C(C)C (single isomer, unassigned) [Compound 17] | 57.9 | 0.0115 |  |  |
| COC(=O)N[C@H](C(=O)N1CCC[C@H]1c1ncc(-c2ccc3c(c2)OC(C2CC2)C2=C3COc3cc(-c4cnc([C@@H]5CCCN5C(=O)[C@@H](NC(=O)OC)C(C)C)[nH]4)ccc32)[nH]1)C(C)C (single isomer, unassigned) [Compound 18] | 14.3 | 0.0081 |  |  |
| COC(=O)N[C@H](C(=O)N1C[C@H](F)C[C@H]1c1ncc(-c2ccc3c(c2)OC(C2CC2)C2=C3COc3cc(-c4cnc([C@@H]5C[C@@H](F)CN5C(=O)[C@@H](NC(=O)OC)C(C)C)[nH]4)ccc32)[nH]1)C(C)C (single isomer, unassigned) [Compound 19] |  | 0.0192 | 2.31 |  |
| COC(=O)N[C@H](C(=O)N1C[C@H](F)C[C@H]1c1ncc(-c2ccc3c(c2)OC(C2CC2)C2=C3COc3cc(-c4cnc([C@@H]5C[C@@H](F)CN5C(=O)[C@@H](NC(=O)OC)C(C)C)[nH]4)ccc32)[nH]1)C(C)C (single isomer, unassigned) [Compound 20] | 1.97 | 0.0866 |  |  |
| COC(=O)N[C@H](C(=O)N1C[C@H](F)C[C@H]1c1ncc(-c2ccc3c(c2)OC(C2CC2)C2=C3COc3cc(-c4cnc([C@@H]5C[C@@H](F)CN5C(=O)[C@@H](NC(=O)OC)C(C)C)[nH]4)ccc32)[nH]1)C(C)C (single isomer, unassigned) [Compound 21] | 2.17 | 0.0156 |  |  |
| COC(=O)N[C@H](C(=O)N1C[C@H](F)C[C@H]1c1ncc(-c2ccc3c(c2)OCc2c-3c(=O)oc3cc(-c4cnc([C@@H]5C[C@@H](F)CN5C(=O)[C@@H](NC(=O)OC)C(C)C)[nH]4)ccc23)[nH]1)C(C)C [Compound 5] |  |  | 0.337 | IC50 ([1]; Hepatitis C virus, 72 h): 100 nM; IC50 ([3]; Hepatitis C virus, 72 h): 1 nM; IC50 ([4]; Hepatitis C virus, 72 h): 0.0044 nM; IC50 ([5]; Hepatitis C virus, 72 h): 0.0153 nM |
| CC(C)(C)OC(=O)N1C[C@H](F)C[C@H]1c1ncc(-c2ccc3c(c2)OCc2c-3c(=O)oc3cc(-c4cnc([C@@H]5C[C@@H](F)CN5C(=O)OC(C)(C)C)[nH]4)ccc23)[nH]1 [Compound 6] |  |  | 3080 | IC50 ([5]; Hepatitis C virus, 72 h): 975 nM |
| COC(=O)N[C@H](C(=O)N1CCC[C@H]1c1ncc(-c2ccc3c(c2)OC(c2ccccc2)C2=C3COc3cc(-c4cnc([C@@H]5CCCN5C(=O)[C@@H](NC(=O)OC)C(C)C)[nH]4)ccc32)[nH]1)C(C)C (some centres unmarked) [Compound 7] |  |  | 4.29 | IC50 ([1]; Hepatitis C virus, 72 h): 1 nM; IC50 ([3]; Hepatitis C virus, 72 h): 0.062 nM; IC50 ([4]; Hepatitis C virus, 72 h): 0.002 nM; IC50 ([5]; Hepatitis C virus, 72 h): 0.0076 nM |
| COC(=O)N[C@H](C(=O)N1CCC[C@H]1c1ncc(-c2ccc3c(c2)OCC2=C3COc3cc(-c4cnc([C@@H]5C[C@H]6C[C@H]6N5C(=O)[C@@H](NC(=O)OC)C(C)C)[nH]4)ccc32)[nH]1)C(C)C [Compound 22] |  |  | 2.01 | IC50 ([1]; Hepatitis C virus, 72 h): 16 nM; IC50 ([3]; Hepatitis C virus, 72 h): 2.02 nM; IC50 ([5]; Hepatitis C virus, 72 h): 0.0023 nM |
